Assay results taken from the supplement of paper PMC10307832.

Experiments:
Experiment in all cases: relative viability (nuclei count vs DMSO), 5 days (fraction); higher = more cells survive
Decitabine + Alpelisib = compound: Nc1ncn([C@H]2C[C@H](O)[C@@H](CO)O2)c(=O)n1 [Decitabine] + Cc1nc(NC(=O)N2CCC[C@H]2C(N)=O)sc1-c1ccnc(C(C)(C)C(F)(F)F)c1 [Alpelisib] (partner 2 µM)
Summary of the method: (§1)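 A single step with final 0.05% Triton X-100, 1% formaldehyde and 1 ug/ml Hoechst fixed the cells and stained nuclei 5 days after treatment. Lung cancer cell lines in 1536-well plates had been treated by pin tool the day after seeding with one drug alone or a fixed anchor-drug dose plus five library-drug doses (not always all listed) in √10 steps, and nuclei were counted on 4× images. Relative viability is the ratio of nuclei in treated wells to nuclei in vehicle wells, taken as the median of duplicate plates.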

[1] = compound: O=C(C[C@H]1NCCC[C@@H]1O)Cn1cnc2cc(Br)c(Cl)cc2c1=O (racemic) [Halofuginone] + CC1(C)CCC(c2ccc(Cl)cc2)=C(CN2CCN(c3ccc(C(=O)NS(=O)(=O)c4ccc(N[C@H](CCN5CCOCC5)CSc5ccccc5)c(S(=O)(=O)C(F)(F)F)c4)cc3)CC2)C1 [Navitoclax] (partner 0.5 µM)
Summary of the method: as §1

[2] = compound: O=C(C[C@H]1NCCC[C@@H]1O)Cn1cnc2cc(Br)c(Cl)cc2c1=O (racemic) [Halofuginone] + N=C(N)NC(=N)NCCc1ccccc1 [Phenformin] (partner 250 µM)
Summary of the method: as §1

Halofuginone + Olaparib = compound: O=C(C[C@H]1NCCC[C@@H]1O)Cn1cnc2cc(Br)c(Cl)cc2c1=O (racemic) [Halofuginone] + O=C(c1cc(Cc2n[nH]c(=O)c3ccccc23)ccc1F)N1CCN(C(=O)C2CC2)CC1 [Olaparib] (partner 8 µM)
Summary of the method: as §1

Cell Line	relative viability (Decitabine + Alpelisib; first compound 0.04 µM)	relative viability (Decitabine + Alpelisib; first compound 0.1265 µM)	relative viability (Decitabine + Alpelisib; first compound 0.4 µM)	relative viability (Decitabine + Alpelisib; first compound 1.265 µM)	relative viability (Decitabine + Alpelisib; first compound 4 µM)	relative viability ([1]; first compound 0.001 µM)	relative viability ([1]; first compound 0.003162 µM)	relative viability ([1]; first compound 0.01 µM)	relative viability ([1]; first compound 0.03162 µM)	relative viability ([1]; first compound 0.1 µM)	relative viability ([2]; first compound 0.001 µM)	relative viability ([2]; first compound 0.003162 µM)	relative viability ([2]; first compound 0.01 µM)	relative viability ([2]; first compound 0.03162 µM)	relative viability ([2]; first compound 0.1 µM)	relative viability (Halofuginone + Olaparib; first compound 0.001 µM)	relative viability (Halofuginone + Olaparib; first compound 0.003162 µM)	relative viability (Halofuginone + Olaparib; first compound 0.01 µM)	relative viability (Halofuginone + Olaparib; first compound 0.03162 µM)	relative viability (Halofuginone + Olaparib; first compound 0.1 µM)
NCI-H2228	0.479	0.41	0.453	0.298	0.201	0.976	0.857	0.879	0.228	0.126	0.32	0.332	0.307	0.338	0.172	0.669	0.627	0.461	0.184	0.124
NCI-H2347	0.898	0.848	0.675	0.597	0.665	0.814	0.838	0.859	0.845	0.589	0.535	0.521	0.53	0.477	0.317	0.537	0.583	0.565	0.518	0.43
NCI-H2405	0.737	0.753	0.698	0.494	0.373	0.986	0.855	0.878	0.784	0.542	0.423	0.436	0.414	0.396	0.337	0.934	0.864	0.826	0.795	0.66
NCI-H3122	0.666	0.774	0.732	0.709	0.528	0.994	1.02	0.966	1.01	1.05	0.379	0.37	0.356	0.355	0.383	0.654	0.618	0.642	0.692	0.686
PC-3 [JPC-3]		0.773	0.581	0.493	0.479	0.8	0.792	0.805	0.768	0.73	0.501	0.453	0.456	0.473	0.443	1.19	1.12	1.15	1.15	0.948
PC-14	0.623	0.723	0.411	0.196	0.18	1.07	0.941	0.963	0.572	0.154	0.563	0.553	0.565	0.606	0.281	0.383	0.333	0.406	0.218	0.0499
RERF-LC-KJ	0.87	0.914	0.702	0.643	0.569	0.987	1.11	1.05	0.905	0.699	0.447	0.436	0.381	0.416	0.423	1.19	0.983	0.884	0.959	0.632
SK-LU-1	0.62	0.637	0.485	0.5	0.284	0.821	0.895	0.874	1.42	0.275	0.541	0.636	0.604	0.415	0.301	0.488	0.444	0.477	0.454	0.312
SK-MES-1	0.733	0.738	0.482	0.32	0.261	1.22	1.16	1.18	0.67	0.197	0.657	0.717	0.621	0.556	0.228	0.768	0.69	0.713	0.345	0.174
SW 1573	0.7	0.912	0.61	0.274	0.298	1.03	1.01	0.921	0.6	0.168	0.411	0.389	0.378	0.357	0.205	0.496	0.422	0.526	0.232	0.138
